PMC12655529, “Serendipitous Hinge Modulation Hypothetically Reprograms Caerin 1.1-LC Antibacterial Mechanism and Gram-Negative Selectivity” (Pharmaceutics, 2025)
Ends that are not written are not given here.

Columns and labels:
Gram-positive bacteria = assay: Geometric mean MIC and therapeutic index, Gram-positive; assay type: cell-based; details: geometric mean of MICs
[1] = tested on: Pseudomonas aeruginosa ATCC 9027; assay type: cell-based
Description: (§1) The antimicrobial activities of the peptides were evaluated by determining their minimal inhibitory concentration (MIC) and minimal bactericidal concentration (MBC) values following reported protocols [20]. The tested microorganisms included seven Gram-negative bacterial strains (Escherichia coli ATCC 8739, E. coli ATCC-BAA 2340, E. coli NCTC 13846, Klebsiella pneumoniae ATCC 43816, K. pneumoniae ATCC BAA-2342, Pseudomonas aeruginosa ATCC 9027, Acinetobacter baumannii ATCC BAA-747), three Gram-positive bacterial strains (Staphylococcus aureus ATCC 6538, Enterococcus faecalis NCTC 12697, MRSA NCTC 12493, and the fungal strain Candida albicans ATCC 10231. For the assay, each bacterial strain was cultured overnight at 37 °C in 100 mL of medium in a flask. The cultures were then subcultured to reach the logarithmic growth phase and diluted to 5 × 10^5 CFU/mL. Peptide samples were serially diluted two-fold in microplates, with concentrations ranging from 128 μM to 1 μM. The diluted bacterial suspensions were mixed with the peptide solutions and incubated overnight at 37 °C. The MIC values were determined by measuring the absorbance of each well using a Synergy HT plate reader (Agilent, Cheshire, UK). For MBC determination, aliquots from wells showing no visible growth were inoculated onto agar plates to assess bacterial viability. Each experiment was repeated independently three times and conducted in three independent replicates.

[2] = tested on: K. pneumoniae ATCC BAA-2342; assay type: cell-based, Klebsiella pneumoniae
Description: as §1

[3] = tested on: Escherichia coli ATCC 8739; assay type: cell-based; details: ATCC 8739
Description: as §1

horse red blood cells = assay: Haemolysis assay; assay type: cell-based; details: concentration inducing 10% haemolysis of horse erythrocytes; 4% (v/v) in PBS, 2 h, 37 °C, absorbance 570 nm; no haemolysis at maximum testing concentration (128 μM) recorded as 256 μM
Description: The peptide cytotoxicity against mammalian erythrocytes was evaluated by haemolysis assay on horse red blood cells (E&O Laboratories Ltd., Falkirk, UK). Fresh horse blood was washed three times with PBS and resuspended to a final concentration of 4% (v/v) in PBS. The diluted blood suspension was then mixed with peptide solutions at varying concentrations and incubated for 2 h at 37 °C. Red blood cell suspensions treated with 0.1% Triton X-100 and PBS were used as controls. The Triton X-100-treated suspension was the positive control (for 100% haemolysis), while the PBS-treated suspension was the blank control. Following incubation, the mixtures were centrifuged at 1000× g for 10 min to separate erythrocytes from the supernatant. The absorbance of the supernatants was detected at 570 nm. The percentage haemolysis was calculated by following the equationPercentage Haemolysis = (AbsSample − AbsBlank)/(AbsPositive − AbsBlank) × 100%

Gram-negative bacteria = assay: Geometric mean MIC and therapeutic index, Gram-negative; assay type: cell-based; details: geometric mean of MICs
[4] = tested on: Acinetobacter baumannii ATCC BAA-747; assay type: cell-based; details: ATCC BAA-747
Description: as §1

[5] = tested on: Enterococcus faecalis NCTC 12697; assay type: cell-based; details: NCTC 12697
Description: as §1

MRSA NCTC 12493 = assay type: cell-based, Staphylococcus aureus
Description: as §1

E. coli NCTC 13846 = assay type: cell-based, Escherichia coli
Description: as §1

E. coli ATCC BAA-2340 = assay type: cell-based, Escherichia coli
Description: as §1

[6] = tested on: Staphylococcus aureus ATCC 6538; assay type: cell-based; details: ATCC 6538
Description: as §1

[7] = tested on: Klebsiella pneumoniae ATCC 43816; assay type: cell-based; details: ATCC 43816
Description: as §1

Row | Substance | GM MIC Gram-Positive (Gram-positive bacteria) [µM] | MBC, P. aeruginosa (ATCC 9027) [1] [µM] | MIC, P. aeruginosa (ATCC 9027) [1] [µM] | MBC, K. pneumoniae (ATCC BAA-2342) [2] [µM] | MIC, K. pneumoniae (ATCC BAA-2342) [2] [µM] | MBC, E. coli (ATCC 8739) [3] [µM] | MIC, E. coli (ATCC 8739) [3] [µM] | HC10 (horse red blood cells) [µM] | GM MIC Gram-Negative (Gram-negative bacteria) [µM] | MBC, A. baumannii (ATCC BAA-747) [4] [µM] | MIC, A. baumannii (ATCC BAA-747) [4] [µM] | MBC, E. faecalis (NCTC 12697) [5] [µM] | MIC, E. faecalis (NCTC 12697) [5] [µM] | MBC, MRSA (NCTC 12493) (MRSA NCTC 12493) [µM] | MIC, MRSA (NCTC 12493) (MRSA NCTC 12493) [µM] | MBC, E. coli (NCTC 13846) (E. coli NCTC 13846) [µM] | MIC, E. coli (NCTC 13846) (E. coli NCTC 13846) [µM] | MBC, E. coli (ATCC BAA-2340) (E. coli ATCC BAA-2340) [µM] | MIC, E. coli (ATCC BAA-2340) (E. coli ATCC BAA-2340) [µM] | MBC, S. aureus (ATCC 6538) [6] [µM] | other results
1 | GLLSVLGSLKLIVAHVVALIAEKL-NH2 [Caerin 1.1-LC 2P-2A] | 256 | >128 | >128 | >128 | >128 | >128 | >128 | 256 | 256 | >128 | >128 | >128 | >128 | >128 | >128 | >128 | >128 | >128 | >128 | >128 | MIC, S. aureus (ATCC 6538) [6]: >128 µM; MBC, K. pneumoniae (ATCC 43816) [7]: >128 µM; MIC, K. pneumoniae (ATCC 43816) [7]: >128 µM
2 | GLLSVLGSLKKIVPHVVPLIAEKL-NH2 [Caerin 1.1-LC 11K] | 20.1 | 32 | 16 | 16 | 8 | 16 | 8 | 35.8 | 8.8 | 32 | 32 | 128 | 128 | 8 | 8 | 8 | 4 | 8 | 2 | 32 | MIC, S. aureus (ATCC 6538) [6]: 8 µM; MBC, K. pneumoniae (ATCC 43816) [7]: 32 µM; MIC, K. pneumoniae (ATCC 43816) [7]: 16 µM
3 | GLLSVLGSLKLIVPHWWPLIAEKL-NH2 [Caerin 1.1-LC PHWWP] | 256 | >128 | >128 | >128 | >128 | 64 | 32 | 256 | 105 | >128 | >128 | >128 | >128 | >128 | >128 | 128 | 64 | 32 | 16 | >128 | MIC, S. aureus (ATCC 6538) [6]: >128 µM; MBC, K. pneumoniae (ATCC 43816) [7]: >128 µM; MIC, K. pneumoniae (ATCC 43816) [7]: >128 µM
